According to US9386767B2, “Derivatives of dillapiol and related monolignans and use thereof” (UNIVERSITY OF OTTAWA, priority 2011, dated 2016):
Where “and” joins values, the source holds several entries; their conditions need not be identical. Identical values can stand only once. Like-named read-outs stand apart in the source and are kept apart here.

How the values were obtained:
CYP3A4 = target: T1, CYP3A4 (Homo sapiens, UniProt P08684); assay: New CYP3A4 bioassay with dibenzylfluorescein (DBF) substrate (Foster et al. 2011); format: biochemical; conditions: human, CYP3A4 (BDGentest) isozyme within human microsomes, pH 7.4, probe dibenzylfluorescein (DBF), 1 μM final, DBF substrate 1 μM, human microsomes
T1 construct: purchased BDGentest
Description: (§1) In the second set of experiments, new CYP3A4 enzyme inhibition assays were conducted with a designed set of analogs and newer method described by Foster et al. (J. Agric. Food Chem, 2011, 59(9):5159-5163). This assay using the substrate dibenzylfluorescein (DBF) is considered more representative of CYP3A4 activity as compared to the benzyloxyresorufin assay previously used (Budzinski et al., 2000, Phytomedicine, 7(4):273-282).
(§2) Aliquots (10 μL) of stock solutions of the undiluted products were screened for their ability to inhibit CYP3A4 (BDGentest) metabolism of the non-fluorescent dibenzylfluorescein (DBF) substrates to the fluorescent metabolite using an in vitro fluorometric microtiter plate assay (CytoFluor Series 4000 multi-well plate reader). Briefly, assays were performed with 10 μL of product in clear-bottom, opaque-welled microtiter plates (96 well, Corning Costar). Control and control blank wells contained 5% ethanol, and test and test blank wells contained the product. All wells tested contained distilled water, β-nicotinamide adenine dinucleotide phosphate, reduced form (NADPH, Sigma Chemicals), and the enzyme substrate DBF (final concentration of 1 μM/well), for a total reaction volume of 200 μL. Control and test wells also contained live isozyme, within human microsomes, in phosphate buffer solution (PBS; 0.5 M, pH 7.4), and control blank and test blank wells contained denatured isoenzyme in PBS. Fluorescence was measured at 485 nm excitation and 530 nm emission, with a gain of 50.

CYP3A4 (BDGentest) = target: T2, CYP3A4 (BDGentest) (Homo sapiens, UniProt P08684); assay: as above; format: biochemical; conditions: for IC50: human microsomes; for % Activity relative to dillapiol = 1: new CYP3A4 bioassay, inhibition relative to dillapiol
T2 construct: purchased BDGentest
Description: as §1, §2

human cytochrome CYP3A4 [1] = target: T3, human cytochrome CYP3A4 (Homo sapiens, UniProt P08684); assay: CYP3A4 inhibition assay of dillapiol derivatives (earlier benzyloxyresorufin assay); format: biochemical; conditions: for Rel. Activity Dillapiol = 1.0: CYP3A4 inhibition relative to dillapiol
Description: A suite of dillapiol derivatives were synthesized and assayed for their capacity to inhibit human cytochrome CYP3A4. For each molecule, experimental IC50 values for CYP3A4 inhibition were determined. These IC50 values together with the log of the octanol-water partition coefficient (logP) and molecular refractivity (MR) are shown in Table 1, and were used as parameters to model a quantitative structure-activity relationship (QSAR). The resulting equations were used to guide the design of further derivatives with enhanced CYP3A4 inhibition.
as §1

mosquito larvae = conditions: co-administration of dillapiol with alpha-terthienyl; increased toxicity in mosquito larvae; cited from earlier work
parasitemia = conditions: co-administration of dillapiol with genudin, mice; cited from earlier work
human cytochrome CYP3A4 [2] = target: T3, human cytochrome CYP3A4; conditions: Budzinski et al., 2000; cited from earlier work
[3] = DBF substrate 1 μM, read-out: IC50 (converted)
[4] = Table 1, CYP3A4 inhibition, read-out: IC50

T2 sequence (P08684 whole entry): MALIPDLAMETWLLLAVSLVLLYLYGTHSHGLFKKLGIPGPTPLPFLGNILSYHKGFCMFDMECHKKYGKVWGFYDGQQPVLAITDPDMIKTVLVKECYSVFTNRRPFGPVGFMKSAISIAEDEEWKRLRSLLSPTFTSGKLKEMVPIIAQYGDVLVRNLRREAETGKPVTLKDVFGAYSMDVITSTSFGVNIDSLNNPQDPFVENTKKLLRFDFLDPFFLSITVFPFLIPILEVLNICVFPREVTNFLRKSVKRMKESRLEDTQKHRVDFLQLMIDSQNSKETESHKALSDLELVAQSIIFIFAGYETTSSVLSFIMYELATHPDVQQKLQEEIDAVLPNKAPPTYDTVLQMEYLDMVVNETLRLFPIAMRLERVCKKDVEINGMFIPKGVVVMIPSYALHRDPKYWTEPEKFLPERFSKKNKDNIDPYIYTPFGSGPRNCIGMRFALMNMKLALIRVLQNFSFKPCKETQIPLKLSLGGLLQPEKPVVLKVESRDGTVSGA
T3 sequence (P08684 whole entry): as above
T1 sequence (P08684 whole entry): as above

SMILES	IC50 (CYP3A4 (BDGentest); [3])	% Activity relative to dillapiol = 1 (CYP3A4 (BDGentest))	CYP3A4 inhibition compared with dillapiol (in words) (human cytochrome CYP3A4 [1]; Table 1)	Rel. Activity Dillapiol = 1.0 (human cytochrome CYP3A4 [1]; Table 1)	IC50 (human cytochrome CYP3A4 [1]; [4]) [µM]	further results
COc1c(CCCO)cc2c(c1OC)OCO2	16.6 µM	0.57				IC50 (CYP3A4): 16 µM
COc1c(/C=C/CC(O)(c2ccccc2)c2ccccc2)cc2c(c1OC)OCO2 [Compound 1]	1.58 µM	5.8	at least four times lower than dillapiol	100 and 114	3.6	CYP3A4 inhibition (in words) (CYP3A4 (BDGentest)): increased inhibition of CYP3A4 compared to dillapiol
COc1c(CCCOC(=O)c2ccccc2)cc2c(c1OC)OCO2 [Compound 12]	2.1 µM and 2.11 µM	4.4	at least four times lower than dillapiol	29	14	CYP3A4 inhibition (in words) (CYP3A4 (BDGentest)): increased inhibition of CYP3A4 compared to dillapiol
C=CCc1cc2c(c(SCc3ccccc3)c1O)OCO2 [Compound 24]				1.6		
C=CCc1cc2c(c(SCc3ccccc3)c1OC)OCO2 [Compound 25]			at least four times lower than dillapiol	9 and 9.3	44	
C=CCc1cc2c(c([S+]([O-])c3ccccc3)c1OC)OCO2 (stereo not shown) [Compound 26]				2.7	150	
C=CCc1cc2c(c([S+]([O-])Cc3ccccc3)c1OC)OCO2 (stereo not shown) [Compound 27]			at least four times lower than dillapiol	6.4	64	
C=CCc1cc2c(c(OC)c1OC)OCO2 [dillapiol, 4,5 dimethoxy-6-(2-propenyl)-1,3-benzodioxole]		1		1.0		IC50 (human cytochrome CYP3A4 [1]): 410 µM; IC50 (CYP3A4 (BDGentest); IC50, DBF substrate 1 μM): 9.45 µM; synergism factor (mosquito larvae): 1.9; increase of parasitemia clearance (parasitemia): 29%; inhibition of human cytochrome P450 3A4 (in words) (human cytochrome CYP3A4 [2]): inhibits the human cytochrome P450 3A4 (CYP3A4) enzyme
